One test has as its system MDCK cells. The experiment in a line: Inhibition of uptake of 5-FU in MDCK cells (Test Example 4). In kind it is cell-based. The note with it: Canis lupus familiaris, 3H-5FU uptake versus control, harvest time (1, 3 or 5 hours) not given; for inhibition at 100 µM: 10⁻⁴ M; for inhibition at 10 µM: 10⁻⁵ M; for inhibition at 1 µM: 10⁻⁶ M. The method, then:
In the assay of inhibitory activity against the 5-FU uptake of MDCK cells, the anticancer adjuvant activity of the test compound can be estimated based on the inhibitory effect on the uptake of a known anticancer drug.
The inhibitory effect of the compound of this invention on the uptake of 5-FU in MDCK cells was investigated. MDCK cells were seeded on a 24-well culture plate. When the cells became confluent, the test compound (10⁻⁶ - 10⁻⁴ M) and 3H-5FU ([…]) were simultaneously added to the medium and 1, 3 and 5 hours later, cells were harvested to determine the amount of 3H-5FU taken up with a liquid scintillation counter. The percent inhibition to control was calculated.

Test [1] concerns Colon 26 tumor cells. The experiment in a line: Colon 26 percent tumor inhibition, alone and combined with 5-FU derivatives (Test Example 3). The test is classed as in vivo, BALB/c mice. As to conditions: for % Inhibition, Combination: test compound 10 mg/kg orally once daily concurrently with 5-FU derivatives (90 mg/kg total); for % Inhibition, Single drug: test compound 10 mg/kg orally once daily, 5-FU derivatives 30 mg/kg each (90 mg/kg total) orally. The protocol: The additive effect of 5-FU derivative and the compound of this invention was tested in terms of percent tumor inhibition. Colon 26 tumor cells were transplanted subcutaneously to groups of 8 BALB/c mice and the treatment was instituted when the tumor volume amounted to about 50-100 mm³. Each of the test com pound was suspended in 0.5% methylcellulose and admin istered orally in a dose of 10 mg/kg once daily for 14 days in (1) and for 21 days in (2) and (3). As 5-FU derivatives Mifurol™, Furtulon™ and Sunfural™ were used, and all the drugs were administered orally in a dose of 30mg/kg, or 90 mg/kg as total dose of three drugs. The combination group received these 5-FU derivatives concurrently with the test drug. The single drug group received each test compound alone orally.

For test [2], the system named is Colon 26 tumor cells. The experiment in a line: Colon 26 life-prolonging effect / survival (Test Example 5). As to conditions: 10 mg/kg orally once daily; for life-prolonging effect: Test (2): groups of six, eighty percent of control group died on day 63, Fig. 4. In kind it is in vivo, BALB/c mice. The method, then: Furthermore, in the assay of growth inhibitory activity against Colon 26, the life-prolonging effect can be evaluated from the mortality of animals during a period of 4 to 6 weeks after administration.
• (1) Colon 26 tumor cells were transplanted subcutane ously in groups of six BALB/c mice and the treatment was instituted when the tumor volume amounted to about 100 - 200 mm³. The test drug suspended in 0.5% methyl cellulose was administered orally in a dose of 10 mg/kg once daily during the test period. All animals in the control group (no test drug was contained at all) died on day 34 and all animals given 5-FU derivative died on day 40, whereas none of the animals given the compound of this invention (compound No. 169) died even after day 40. The life-prolonging effect of the compound of this invention is clear. • (2) As in the above (1), Colon 26 tumor cells were transplanted subcutaneously in groups of six BALB/c mice and treatment was instituted when the tumor volume amounted to about 100-200 mm³. The test drug suspended in 0.5% methylcellulose was administered orally in a dose of 10 mg/kg once daily during the test period.
The open circle stands for control, the open square for the F-5U derivative group and the closed square for the group given the compound of this invention. The survival rate (%) is plotted on the vertical axis and the number of days after drug administration on the horizontal axis.
The open circle stands for the control group, the open square for Compound No. 175 group, the closed circle for Compound No. 210 group, the open triangle for Compound No. 213 group and the closed square for Compound 219 group. The survival rate (%) is plotted on the vertical axis and the number of days after drug administration on the horizontal axis.

A short description of test [3]: Anticancer effect in unspecified in vitro test systems (Test Example 6). The note with it: in vitro test systems which the inventor used, not described.

In general, inhibition refers to the relative decrease from the control value, in per cent. Read a high inhibition as a response far below the control.

`O=C(Nc1nc(NC(=O)c2cccnc2)nc(-c2ccccc2)n1)c1cccnc1` [Compound No. 102, 2,4-Dinicotinoylamino-6-phenyl-1,3,5-triazine]: in the test on MDCK cells, the inhibition at 100 µM was determined as 62%, the inhibition at 10 µM amounted to 59% and at 1 µM the inhibition was 86%.
For `Nc1nc(NC(=O)c2ccccc2)nc(-c2ccccc2)n1` [Compound No. 103, 2-Amino-4-benzoylamino-6-phenyl-1,3,5-triazine], in the test with MDCK cells, 100 µM produced 50% inhibition and the inhibition at 10 µM amounted to 58%.
In the test on MDCK cells, `O=C(Nc1nc(NC(=O)c2ccccc2)nc(-c2ccccc2)n1)c1ccccc1` [Compound No. 104, 2,4-Dibenzoylamino-6-phenyl-1,3,5-triazine] showed an inhibition at 100 µM of 44%, an inhibition at 10 µM of 50% and an inhibition at 1 µM of 60%.
Consider `Nc1nc(N)nc(-c2ccc(Cl)c(Cl)c2)n1` [Compound No. 156, 2,4-Diamino-6-(3,4-dichlorophenyl)-1,3,5-triazine], for which, in the test with MDCK cells, the inhibition at 100 µM was determined as 56%, the inhibition at 10 µM is 73% and 1 µM produced 85% inhibition.
On to `Nc1nc(N)nc(-c2cccc(Cl)c2)n1` [Compound No. 159, 2,4-Diamino-6-(3-chlorophenyl)-1,3,5-triazine], for which, in the test with Colon 26 tumor cells [1] (Test (1): 14 days), the “% Inhibition, Combination” value is 50.9% and the “% Inhibition, Single drug” value worked out at 2.0%.
As for `Nc1nc(N)nc(-c2cc(Cl)ccc2Cl)n1` [Compound No. 169, 2,4-Diamino-6-(2,5-dichlorophenyl)-1,3,5-triazine], in the test with Colon 26 tumor cells [2] (Test (1): groups of six, control group all died on day 34, Fig. 3), the “survival: day on which the animals died” value was above 40 days. In addition, the “% Inhibition, Combination” value stood at 54.6% in the test on Colon 26 tumor cells [1] (Test (1): 14 days), 84.1% with Colon 26 tumor cells [1] (Test (2): 21 days) and 49.9% in the test on Colon 26 tumor cells [1] (Test (3): 21 days). Further, the “% Inhibition, Single drug” value turned out to be 18.0% in the test on Colon 26 tumor cells [1] (Test (1): 14 days), 11.6% in the test on Colon 26 tumor cells [1] (Test (2): 21 days) and 10.7% with Colon 26 tumor cells [1] (Test (3): 21 days).
Regarding `Nc1nc(N)nc(-c2ccc(Cl)cc2Br)n1` [Compound No. 210, 2,4-Diamino-6-(2-bromo-4-chlorophenyl)-1,3,5-triazine], the life-prolonging effect result in the test with Colon 26 tumor cells [2] is “definite life-prolonging effect”. Besides, the “% Inhibition, Combination” value in the test with Colon 26 tumor cells [1] (Test (2): 21 days) was 86.0%.
Regarding `Nc1nc(N)nc(-c2cc(Br)ccc2Cl)n1` [Compound No. 213, 2,4-Diamino-6-(5-bromo-2-chlorophenyl)-1,3,5-triazine], in the test with Colon 26 tumor cells [2], the life-prolonging effect result was “definite life-prolonging effect”. Besides, the “% Inhibition, Combination” value in the test with Colon 26 tumor cells [1] (Test (2): 21 days) was 70.4%.
Turning to `COCCOc1ccc(Cl)cc1-c1nc(N)nc(N)n1` [Compound No. 221, 2,4-Diamino-6-[5-chloro-2-(2-methoxyethoxy)phenyl]-1,3,5-triazine], in the test with Colon 26 tumor cells [1] (Test (3): 21 days), the “% Inhibition, Combination” value is on record as 76.5% and the “% Inhibition, Single drug” value is 18.1%.
In the test with MDCK cells, `COc1ccc(-c2nc(N)nc(N)n2)cc1OC` [Compound No. 259, 2,4-Diamino-6-(3,4-dimethoxyphenyl)-1,3,5-triazine] came in with an inhibition at 100 µM of 62%, an inhibition at 10 µM of 66% and an inhibition at 1 µM of 77%. Also, in the test with Colon 26 tumor cells [1] (Test (1): 14 days), the “% Inhibition, Combination” value was 45.6% and the “% Inhibition, Single drug” value was determined as 9.2%.
In the test on MDCK cells, `Nc1nc(NC(=O)c2cccnc2)nc(-c2cc(Cl)ccc2Cl)n1` [Compound No. 262, 2-Amino-4-nicotinoylamino-6-(2,5-dichlorophenyl)-1,3,5-triazine] returned an inhibition at 100 µM of 46% and an inhibition at 10 µM of 58%. In the test on Colon 26 tumor cells [1] (Test (3): 21 days), the “% Inhibition, Combination” value worked out at 48.8% and the “% Inhibition, Single drug” value amounted to 19.2%.
For the molecule `Nc1nc(NC(=O)c2cccnc2)nc(-c2ccc(Cl)c(Cl)c2)n1` [Compound No. 263, 2-Amino-4-nicotinoylamino-6-(3,4-dichlorophenyl)-1,3,5-triazine], in the test on Colon 26 tumor cells [1] (Test (1): 14 days), the “% Inhibition, Combination” value is reported as 47.9% and the “% Inhibition, Single drug” value is 7.0%. Besides, in the test on Colon 26 tumor cells [1] (Test (3): 21 days), the “% Inhibition, Combination” value is on record as 52.0% and the “% Inhibition, Single drug” value worked out at 8.9%.
In the test on MDCK cells, `COc1ccc(-c2nc(N)nc(NC(=O)c3cccnc3)n2)cc1OC` [Compound No. 264, 2-Amino-4-nicotinoylamino-6-(3,4-dimethoxyphenyl)-1,3,5-triazine] showed an inhibition at 100 µM of 56%, an inhibition at 10 µM of 62% and an inhibition at 1 µM of 89%.
In the same order, the values of `Nc1nc(N)nc(-c2ccc(OCc3ccccc3)cc2)n1` [Compound No. 345, 2,4-Diamino-6-(4-benzyloxyphenyl)-1,3,5-triazine] are 70%, 63% and 63%.
In the test on MDCK cells, `CC(=O)c1cccc(-c2nc(N)nc(N)n2)c1` [Compound No. 347, 2,4-Diamino-6-(3-acetylphenyl)-1,3,5-triazine] showed an inhibition at 100 µM of 49% and an inhibition at 10 µM of 61%.
In the same order, the values of `Nc1cccc(-c2nc(N)nc(N)n2)c1` [Compound No. 352, 2,4-Diamino-6-(3-aminophenyl)-1,3,5-triazine] are 64% and 69%.
In the test on MDCK cells, `Nc1nc(N)nc(-c2ccccc2NCc2ccccc2)n1` [Compound No. 356, 2,4-Diamino-6-(2-benzylaminophenyl)-1,3,5-triazine] had an inhibition at 100 µM of 51%, an inhibition at 10 µM of 73% and an inhibition at 1 µM of 91%.
For the molecule `Nc1nc(N)nc(-c2ccc(Br)c(Br)c2)n1` [Compound No. 405, 2,4-Diamino-6-(3,4-dibromophenyl)-1,3,5-triazine], in the test with MDCK cells, the inhibition at 100 µM is 62% and the inhibition at 10 µM came to 59%.
In the case of `Nc1nc(N)nc(-c2ccccc2)n1` [compound 100, 2,4-Diamino-6-phenyl-1,3,5-triazine], the “anticancer effect in vitro” value in test [3] is “strong anticancer effect”.
Consider `CCONc1nc(N)nc(-c2cc(Cl)ccc2Cl)n1` [compound 183, 2-Amino-4-ethoxyamino-6-(2,5-dichlorophenyl)-1,3,5-triazine], for which the “anticancer effect in vitro” value in test [3] was “strong anticancer effect”.
The same measure, in the same setting: the same measure for `Nc1nc(N)nc(-c2cc(Br)ccc2F)n1` [compound 215, 2,4-Diamino-6-(5-bromo-2-fluorophenyl)-1,3,5-triazine]: “strong anticancer effect”; for `COc1ccccc1-c1nc(N)nc(N)n1` [compound 255, 2,4-Diamino-6-(2-methoxyphenyl)-1,3,5-triazine]: “strong anticancer effect”.
Same read-out and setting: the same measure for `Nc1nc(N)nc(-c2cc([N+](=O)[O-])ccc2Cl)n1` [compound 374, 2,4-Diamino-6-(2-chloro-5-nitrophenyl)-1,3,5-triazine]: “strong anticancer effect”; for `Cc1ccc(Cl)cc1-c1nc(N)nc(N)n1` [compound 380, 2,4-Diamino-6-(5-chloro-2-methylphenyl)-1,3,5-triazine]: “strong anticancer effect”.
On the same count and under the same terms, then `Nc1nc(N)[n+]([O-])c(-c2cc(Cl)ccc2Cl)n1` [compound 1001, 2,4-Diamino-6-(2,5-dichlorophenyl)-1,3,5-triazine N-oxide], with “strong anticancer effect”.

The record behind these values is patent publication EP0563386A1, “ANTICANCER COMPOSITION AND COMPOUND” (NIPPON SHINYAKU COMPANY, LIMITED, priority 1990, dated 1992).
